In ChEMBL document CHEMBL1140832, “Antimitotic quinoid triterpenes from Maytenus chuchuhuasca” (Bioorg Med Chem Lett, 2008):
Active and inactive are the calls of the source. No cut-off for these calls is given here.

Legend:
RPMI-8226 = assay: Growth inhibition of human RPMI8226 cells; format: functional, cell-based
[1] = Inhibition of tubulin polymerization
[2] = Inhibition of tubulin polymerization at 100 uM

Compound | IC50 (RPMI-8226) | IC50 [1] | Activity [2]
CC[C@]1(O)C[C@@H]2CN(CCc3c([nH]c4ccccc34)[C@@](C(=O)OC)(c3cc4c(cc3OC)N(C)[C@H]3[C@@](O)(C(=O)OC)[C@H](OC(C)=O)[C@]5(CC)C=CCN6CC[C@]43[C@@H]65)C2)C1 [VINBLASTINE] | 0.028 µM | 1 µM | 
COC(=O)[C@]1(C)CC[C@]2(C)CC[C@]3(C)C4=CC=C5C(=CC(=O)C(O)=C5C)[C@]4(C)CC[C@@]3(C)[C@@H]2C1 [PRISTIMERIN] | 16.6 µM | 8 µM | 
COC(=O)[C@]1(C)CC[C@]2(C)CC[C@]3(C)C4=CC(=O)c5c(cc(O)c(O)c5C)[C@]4(C)CC[C@@]3(C)[C@@H]2C1 |  |  | inactive
CC1=C(O)C(=O)C=C2C1=CC=C1[C@@]2(C)CC[C@@]2(C)[C@@H]3C[C@@H](C)C(=O)C[C@]3(C)CC[C@]12C [TINGENONE] | 7 µM | 8 µM | 
CC1=C(O)C(=O)C=C2C1=CC=C1[C@@]2(C)CC[C@@]2(C)[C@@H]3C[C@](C)(C(=O)O)CC[C@]3(C)CC[C@]12C [CELASTROL] | 3 µM | 2 µM | 
COc1c(O)cc2c(c1C)C(=O)C=C1[C@@]2(C)CC[C@@]2(C)[C@@H]3C[C@@H](C)C(=O)C[C@]3(C)CC[C@]12C |  |  | inactive
CC1=C(O)C(=O)C=C2C1=CC=C1[C@@]2(C)CC[C@@]2(C)[C@@H]3C[C@@H](C)C(=O)[C@@H](O)[C@]3(C)CC[C@]12C [TINGENIN B] | 18.3 µM | 12 µM | 
